# Test results taken from patent US20050090520A1 (priority 2003, published 2005).
# Read-outs that look alike come from different tables or passages of the source.
# What was measured:
# S1P4 [1] = biological target: T1, S1P4 (Homo sapiens, UniProt O95977); settings: read-out: Potency (EC50) S1P4, cited from earlier work
# T1 sequence (O95977 1-384): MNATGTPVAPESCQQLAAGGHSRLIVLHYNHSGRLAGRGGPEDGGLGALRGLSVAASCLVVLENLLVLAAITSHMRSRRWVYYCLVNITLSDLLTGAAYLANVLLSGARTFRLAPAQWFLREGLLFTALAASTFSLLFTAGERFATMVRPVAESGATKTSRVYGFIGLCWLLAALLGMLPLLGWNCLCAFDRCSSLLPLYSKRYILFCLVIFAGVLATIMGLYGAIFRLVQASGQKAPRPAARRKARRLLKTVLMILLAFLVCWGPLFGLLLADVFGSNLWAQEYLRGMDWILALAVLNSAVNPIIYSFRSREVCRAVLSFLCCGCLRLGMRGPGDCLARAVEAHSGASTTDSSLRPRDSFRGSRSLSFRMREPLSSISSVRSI
# S1P4 [2] = biological target: T1, S1P4; settings: Mandala et al., 2002; CHO cell membranes; read-out: Binding (IC50) S1P4; cited from earlier work
# [3] = rat models; IDDB; cited from earlier work
# [4] = cited from earlier work
# [5] = primates, 3 mg/kg; IDDB; cited from earlier work
# [6] = renal transplant patients, single oral dose 0.25-3 mg, whole blood, 96 hours; cited from earlier work
# [7] = test system: adult neural stem cells (NSCs); test: Lactate dehydrogenase (LDH) cell death assay; format: cell-based, mouse; settings: 3 days
# Procedure: (§1) The adherent cells were seeded at a density of 30,000 cells/well on poly-D-lysine in DMEM/F12 supplemented with 1% fetal calf serum (FCS).
# The death of cells that occurred during the 3 days was measured as leakage of lactate dehydrogenase (LDH) into the medium. […] The proportion of LDH in the medium to total LDH (medium+cells) gives the percentage of cell death. Treated and untreated cells can thus be compared to rule out apoptosis as the cause for the different results observed in the ATP proliferation assay. The amount of LDH was measured according to the instructions of the manufacturer, Promega, USA (see, also, Chen, et al., 2004).
# [8] = monkeys; cited from earlier work
# S1P2 = S1P2 (Homo sapiens, UniProt O95136); settings: Mandala et al., 2002; CHO cell membranes; read-out: Binding (IC50) S1P2; cited from earlier work
# [9] = dog models, dosages below 200 mg/kg; IDDB; cited from earlier work
# [10] = rats, cited from earlier work
# [11] = test system: adult neural stem cells (NSCs); test: Intracellular ATP proliferation assay; format: cell-based, mouse; settings: for Increase in intracellular ATP levels: 10 nM, 3 days
# Procedure: (§2) The anterior lateral wall of the lateral ventricle of 5-6 week old mice was enzymatically dissociated at 37° C. for 20 min in 0.8 mg/ml hyaluronidase and 0.5 mg/ml trypsin in DMEM containing 4.5 mg/ml glucose and 80 units/ml DNase. The cells were gently triturated and mixed with three volumes of Neurosphere medium (DMEM/F12, B27 supplement, 125 mM HEPES Ph 7.4) containing 20 ng/ml EGF (unless otherwise stated), 100 units/ml penicillin, and 100 μg/ml streptomycin. After passing through a 70 μm strainer, the cells were pelleted at 160×g for 5 min. The supernatant was subsequently removed and the cells resuspended in Neurosphere medium supplemented as above, plated out in culture dishes and incubated at 37° C. Neurosphere cultures were ready to be split approximately 7 days after plating.
# To split the neurosphere cultures, neurospheres were collected by centrifugation at 160×g for 5 min. The conditioned supernatant (conditioned medium) was removed and saved. The neurospheres were resuspended in 0.5 ml Trypsin/EDTA in HBSS (1×), incubated at 37° C. for 2 min, and triturated gently to aid dissociation. Following a further 3 min incubation at 37° C. and trituration, 3 volumes of ice cold NSPH-media-EGF were added to stop further trypsin activity. The cells were pelleted at 220×g for 4 min, and resuspended in a 1:1 mixture of fresh Neurosphere medium and conditioned medium. EGF was supplemented to 20 ng/ml and the culture plated out and incubated at 37° C.
# as §1
# The following experiment was performed in sets of four parallel experiments (i.e., performed in quadruplicate) so that the cells could be used for different assays. […] Cells were lysed with 0.1% Triton-X100 in Tris-EDTA buffer. Intracellular ATP was measured using an ATP-SL kit according to the manufacturer's instructions (BioThema, Sweden). […] For each experiment, wells were visually examined for signs of neurogenesis and counted to confirm the results of the assay. Results were repeatable and statistically significant.
# [12] = test system: adult neural stem cells (NSCs); test: BrdU incorporation proliferation assay; format: cell-based, mouse; settings: 10 nM
# Procedure: as §2
# To split the neurosphere cultures, neurospheres were collected by centrifugation at 160×g for 5 min. The conditioned supernatant (conditioned medium) was removed and saved. The neurospheres were resuspended in 0.5 ml Trypsin/EDTA in HBSS (1×), incubated at 37° C. for 2 min, and triturated gently to aid dissociation. […]
# DNA synthesis is commonly used to measure cell proliferation. […] After incorporation if the pyrimidine analogue into DNA, BrdU was detected by immunoassay. […]
# S1P3 = S1P3 (Homo sapiens, UniProt Q99500); settings: Mandala et al., 2002; CHO cell membranes; read-out: Binding (IC50) S1P3; cited from earlier work
# S1P5 = S1P5 (Homo sapiens, UniProt Q9H228); settings: Mandala et al., 2002; CHO cell membranes; read-out: Binding (IC50) S1P5; cited from earlier work
# [13] = dogs; cited from earlier work
# CYP4F3 = biological target: T2, CYP4F3 (Homo sapiens, UniProt Q08477); settings: cited from earlier work
# T2 sequence (Q08477 1-520): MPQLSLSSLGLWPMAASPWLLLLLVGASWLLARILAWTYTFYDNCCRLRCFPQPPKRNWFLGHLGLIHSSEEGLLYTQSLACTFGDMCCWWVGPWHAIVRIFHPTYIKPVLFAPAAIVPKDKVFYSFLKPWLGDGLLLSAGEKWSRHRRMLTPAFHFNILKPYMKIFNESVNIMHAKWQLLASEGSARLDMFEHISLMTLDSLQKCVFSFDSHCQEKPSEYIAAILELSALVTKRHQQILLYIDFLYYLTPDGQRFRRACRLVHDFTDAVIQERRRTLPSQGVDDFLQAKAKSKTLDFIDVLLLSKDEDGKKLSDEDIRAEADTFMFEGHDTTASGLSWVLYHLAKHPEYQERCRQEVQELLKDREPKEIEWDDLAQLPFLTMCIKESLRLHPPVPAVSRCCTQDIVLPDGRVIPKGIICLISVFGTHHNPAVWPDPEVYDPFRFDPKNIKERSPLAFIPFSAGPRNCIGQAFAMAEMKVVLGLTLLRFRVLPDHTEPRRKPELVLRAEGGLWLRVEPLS
# S1P2, sequence (O95136 whole entry, species assumed): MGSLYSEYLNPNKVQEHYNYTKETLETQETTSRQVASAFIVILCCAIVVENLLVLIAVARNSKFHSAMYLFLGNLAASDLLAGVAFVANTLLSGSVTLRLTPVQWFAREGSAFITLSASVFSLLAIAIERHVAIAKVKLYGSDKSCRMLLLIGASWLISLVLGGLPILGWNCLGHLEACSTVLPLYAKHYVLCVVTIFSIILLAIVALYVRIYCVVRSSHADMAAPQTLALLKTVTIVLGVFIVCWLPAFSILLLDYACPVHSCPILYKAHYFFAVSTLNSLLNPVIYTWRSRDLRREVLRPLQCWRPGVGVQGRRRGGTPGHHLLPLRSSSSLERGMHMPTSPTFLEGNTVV
# S1P3, sequence (Q99500 whole entry, species assumed): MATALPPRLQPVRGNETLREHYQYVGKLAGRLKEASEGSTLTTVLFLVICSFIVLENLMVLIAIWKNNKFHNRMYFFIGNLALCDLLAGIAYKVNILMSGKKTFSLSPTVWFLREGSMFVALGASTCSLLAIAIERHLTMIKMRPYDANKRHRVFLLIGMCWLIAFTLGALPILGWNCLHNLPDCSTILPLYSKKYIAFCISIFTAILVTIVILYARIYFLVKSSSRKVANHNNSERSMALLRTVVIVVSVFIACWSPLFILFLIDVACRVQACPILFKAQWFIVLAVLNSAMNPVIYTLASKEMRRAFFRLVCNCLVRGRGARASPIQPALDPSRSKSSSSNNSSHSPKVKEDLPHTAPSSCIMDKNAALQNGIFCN
# S1P5, sequence (Q9H228 whole entry, species assumed): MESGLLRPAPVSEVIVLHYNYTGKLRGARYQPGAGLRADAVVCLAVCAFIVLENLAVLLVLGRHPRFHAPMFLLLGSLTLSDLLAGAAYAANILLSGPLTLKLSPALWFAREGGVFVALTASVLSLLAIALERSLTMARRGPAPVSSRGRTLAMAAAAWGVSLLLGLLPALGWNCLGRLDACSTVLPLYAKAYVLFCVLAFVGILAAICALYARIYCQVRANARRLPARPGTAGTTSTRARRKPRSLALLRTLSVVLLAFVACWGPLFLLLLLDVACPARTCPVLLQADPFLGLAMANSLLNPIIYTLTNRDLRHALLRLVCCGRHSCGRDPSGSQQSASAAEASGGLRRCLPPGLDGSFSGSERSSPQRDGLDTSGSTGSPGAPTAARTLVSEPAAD
smiles,measurement,setting,value
CCCCCCCCc1ccc(CCC(N)(CO)COP(=O)(O)O)cc1 (racemic) [FTY720P],EC50,"S1P4 [1]; Brinkmann et al., 2002",7.2 nM
same,EC50,S1P4 [1]; Novartis data,43 nM
same,IC50,S1P4 [2],5.9 nM
"CCCCCCCCc1ccc(CCC(N)(CO)CO)cc1 [FTY720, 2-amino-2-[2-(4-octylphenyl)ethyl]-1,3-propanediol]",LD50,[3],300 to 600 mg/kg
same,Adverse events,"[4]; PI renal transplant patients, 0.25-3.5 mg single dose",no serious adverse events
same,Only observed side effect,[4]; orally administered for immunosuppression,mild and transient bradycardia
same,Toxicity,[5],no observed toxicity
same,Absorption,[6],slowly absorbed
same,Cmax and AUC versus dose,[6],proportional to the dose
same,Change in LDH levels between control and treated cells,[7],No significant change
same,Oral bioavailability,[8],40%
same,IC50,S1P2,> 10000 nM
same,Deaths,[9],no deaths were observed
same,T1/2,[10]; single oral dose 0.1 mg/kg,18.1 h
same,T1/2,[10]; single oral dose 1 mg/kg,21.6 h
same,Oral bioavailability,[10],80%
same,Concentration of maximum proliferation effect,[11]; FIG. 2,0.04 nM
same,EC50,"[11]; Mus musculus, Neural stem cell, dose-response curve, FIG. 2, read-out: EC50 of in vitro proliferation of NSCs (ATP assay)",0.02 nM
same,Increase in intracellular ATP levels,[11]; adherent cells,42%
same,Increase in intracellular ATP levels,[11]; suspension cells,25%
same,Increase in BrdU incorporation,[12]; adherent cells,271%
same,Increase in BrdU incorporation,[12]; suspension cells,52%
same,IC50,S1P3,> 10000 nM
same,IC50,S1P5,2620 nM
same,Oral bioavailability,[13],60%
same,Metabolic route,CYP4F3,metabolized primarily by CYP4F3 to the corresponding carboxylic acid
same,IC50,S1P4 [2],> 5000 nM
